The values that follow come from patent US20030086974A1, “Odour regulation in hygiene products” (priority 2001, published 2003).

Common to all, as to assay type: physicochemical
The nature of data set [1]: Toluene inclusion (precipitation of the cyclodextrin-toluene complex). To be noted: 100 mg of sample dissolved in water, 20 μl toluene added to notice precipitation. How it is done: From 4.7 g β-cyclodextrin (dry), an oxidised cyclodextrin was prepared as described in Example 1, using 10 ml 2.0 M NaOCl solution, 150 mg NaBr and 80 mg 4-acetamido-TEMPO. The ratio acid/aldehyde was derived from the sodium hydroxide consumption and also experimentally determined. According to calculation, 6.3 mmol acid and 6.9 mmol aldehyde were produced. […] The reaction mixture was concentrated in vacuum to about 120 ml. […] Precipitation of the oxidised cyclodextrin-toluene complex started slowly i.e. after 10 minutes it was visible that a precipitate was formed. After 5 hours the process of precipitation formation seemed to be finished.
The same experiment was repeated with an acidified solution (pH 3). Here precipitation started immediately after mixing. The process was complete within one hour.
From 4.7 g β-cyclodextrin (dry) an oxidised cyclodextrin was prepared as described in Example 1, using 5 ml 2.0 M NaOCl solution, 150 mg NaBr and 4-acetamido-TEMPO. The ratio acid/aldehyde was derived from the sodium hydroxide consumption and also experimentally determined. According to calculation 2.2 mmol acid and 5.7 mmol aldehyde were produced. […] The reaction mixture was concentrated in vacuum to about 120 ml. […] Precipitation of the oxidised cyclodextrin-toluene complex started immediately and after one hour the process of precipitation formation appeared to be finished.

Data set [2] in a line: Adsorption of phenolphthalein by oxidised β-cyclodextrin (absorption at 553 nm). To be noted: sample 1 mg/ml in sodium carbonate buffer pH 10.3 mixed with 10 μl 0.1% phenolphthalein in ethanol. As for the experimental part: Five grams of β-cyclodextrin (CAVAMAX® W7 from Wacker-CHEMIE GMBH) on dry weight basis was dissolved in 300 ml of demi-water, and 22.4 ml of a 0.032 M 4-acetamido TEMPO solution was; added. Subsequently, β-cyclodextrin was oxidised by addition of sodium hypochlorite. Batches were prepared with theoretically one, two and three anhydroglucose units fully oxidised per cyclodextrin molecule (average) per β-cyclodextrin molecule using sodium hypochlorite. The pH was kept constant during reaction by addition of 0.5 M NaOH, controlled by a pH stat (Metrohm). After completion of the oxidation, the aldehyde groups were reduced with sodium borohydride. The respective batches were concentrated in a rotary evaporator, and subsequently freeze-dried. The freeze-dried material was washed in a methanol/water mixture to remove salts and 4-acetamido-TEMPO. The batches were finally washed with acetone and dried in an oven at 50° C. The inclusion properties were investigated (see Table 1).

Data set [3] in a line: Menthone inclusion (precipitation of the complex). To be noted: 100 mg of sample dissolved in water, 20 μl menthone added to notice precipitation.

Consider `OC[C@H]1O[C@@H]2O[C@H]3[C@H](O)[C@@H](O)[C@@H](O[C@H]4[C@H](O)[C@@H](O)[C@@H](O[C@H]5[C@H](O)[C@@H](O)[C@@H](O[C@H]6[C@H](O)[C@@H](O)[C@@H](O[C@H]7[C@H](O)[C@@H](O)[C@@H](O[C@H]8[C@H](O)[C@@H](O)[C@@H](O[C@H]1[C@H](O)[C@H]2O)O[C@@H]8CO)O[C@@H]7CO)O[C@@H]6CO)O[C@@H]5CO)O[C@@H]4CO)O[C@@H]3CO` [Example 0, β-cyclodextrin], for which the Toluene inclusion result in data set [1] (Table 1) and in data set [1] (Table 2) was “Yes” throughout. In addition, the “Phenolphthalein Absorption (at γ = 553 nm)” value in data set [2] (Table 1) was 0.025; in data set [2] (Table 2, solution without cyclodextrin Abs. = 0.65), 0.025. Moreover, the Menthone inclusion entry in data set [3] (Table 1) and in data set [3] (Table 2) was “Yes” each time.
